According to paper PMC8957246, “Synthesis and diverse biological activity profile of triethylammonium isatin-3-hydrazones” (ADMET & DMPK, 2022):
Where two headings read alike, the source gives them in different places.

Tests used:
Format in all cases: cell-based
[1] = tested on: Fusarium oxysporum IBPPM 543; experiment: Fungicidal activity, radial growth inhibition, F. oxysporum; settings: for EC50: Fusarium oxysporum, IBPPM543, 168 h, day 7, EC50 = 50C/I, read-out: EC50, μg/mL at day 7
In short: (§1)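 Compound solutions mixed into molten GPY agar (~60 °C) at various concentrations; plates centre-inoculated with a 5-mm mycelial block from 10-day cultures and incubated at 27 °C until control plates filled (~12 days). Inhibition is the % decrease in colony radial growth versus untreated control; EC50 = 50C/I.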

[2] = tested on: Candida albicans ATCC 10231; experiment: Antimicrobial activity, serial dilution (MIC/MBC), Ca; settings: ATCC10231
[3] = tested on: Phytophthora cactorum VKM F-985; experiment: Fungicidal activity, radial growth inhibition, P. cactorum; settings: for EC50: Phytophthora cactorum, 168 h, day 7, EC50 = 50C/I, read-out: EC50, μg/mL at day 7
In short: as §1

[4] = tested on: Enterococcus faecalis ATCC 29212; experiment: Antimicrobial activity, serial dilution (MIC/MBC), Ef; settings: ATCC29212
[5] = tested on: Staphylococcus aureus ATCC 6538P FDA 209P; experiment: Antimicrobial activity, serial dilution (MIC/MBC), Sa
[6] = tested on: Bacillus cereus ATCC 10702 NCTC 8035; experiment: Antimicrobial activity, serial dilution (MIC/MBC), Bc
[7] = C 6.81 μg/mL, age of the fungus 3 days
[8] = C 6.81 μg/mL, age of the fungus 5 days
[9] = C 6.81 μg/mL, age of the fungus 7 days
[10] = C 6.81 μg/mL, age of the fungus 9 days
[11] = C 13.62 μg/mL, age of the fungus 3 days
[12] = C 13.62 μg/mL, age of the fungus 5 days
[13] = C 13.62 μg/mL, age of the fungus 7 days
[14] = C 13.62 μg/mL, age of the fungus 9 days
[15] = Staphylococcus aureus, read-out: MBC (converted)
[16] = C 6.30 μg/mL, age of the fungus 3 days
[17] = C 6.30 μg/mL, age of the fungus 5 days
[18] = C 6.30 μg/mL, age of the fungus 7 days
[19] = C 6.30 μg/mL, age of the fungus 9 days
[20] = C 12.60 μg/mL, age of the fungus 3 days
[21] = C 12.60 μg/mL, age of the fungus 5 days
[22] = C 12.60 μg/mL, age of the fungus 7 days
[23] = C 12.60 μg/mL, age of the fungus 9 days

CC[N+](CC)(CC)CC(=O)N/N=C1\C(=O)N(Cc2cc(C(C)(C)C)c(O)c(C(C)(C)C)c2)c2cccc(Br)c21 [Compound 3e, 2-(2-(1-(3,5-Di-tert-butyl-4-hydroxybenzyl)-4-bromo-2-oxoindolin-3-ylidene)hydrazinyl)-N,N,N-triethyl-2-oxoethanammonium bromide]
Inhibition value, I (%) [1, 7]: 11% | Inhibition value, I (%) [1, 8]: 13% | Inhibition value, I (%) [1, 9]: 19% | Inhibition value, I (%) [1, 10]: 6% | Inhibition value, I (%) [1, 11]: 14% | Inhibition value, I (%) [1, 12]: 18% | Inhibition value, I (%) [1, 13]: 22% | Inhibition value, I (%) [1, 14]: 9% | Inhibition value, I (%) ([1]; C 27.24 μg/mL, age of the fungus 3 days): 19% | Inhibition value, I (%) ([1]; C 27.24 μg/mL, age of the fungus 5 days): 19% | Inhibition value, I (%) ([1]; C 27.24 μg/mL, age of the fungus 7 days): 25% | Inhibition value, I (%) ([1]; C 27.24 μg/mL, age of the fungus 9 days): 20% | Inhibition value, I (%) ([1]; C 40.86 μg/mL, age of the fungus 3 days): 40% | Inhibition value, I (%) ([1]; C 40.86 μg/mL, age of the fungus 5 days): 37% | Inhibition value, I (%) ([1]; C 40.86 μg/mL, age of the fungus 7 days): 43% | Inhibition value, I (%) ([1]; C 40.86 μg/mL, age of the fungus 9 days): 29% | EC50 [1]: 17.9 µg/mL | MBC [2]: > 500 µM | MIC [2]: > 500 µM | Inhibition value, I (%) ([3]; C 1.36 μg/mL, age of the fungus 3 days): 8% | Inhibition value, I (%) ([3]; C 1.36 μg/mL, age of the fungus 5 days): 14% | Inhibition value, I (%) ([3]; C 1.36 μg/mL, age of the fungus 7 days): 22% | Inhibition value, I (%) ([3]; C 1.36 μg/mL, age of the fungus 9 days): 10% | Inhibition value, I (%) ([3]; C 1.36 μg/mL, age of the fungus 12 days): 3% | Inhibition value, I (%) ([3]; C 3.41 μg/mL, age of the fungus 3 days): 13% | Inhibition value, I (%) ([3]; C 3.41 μg/mL, age of the fungus 5 days): 21% | Inhibition value, I (%) ([3]; C 3.41 μg/mL, age of the fungus 7 days): 34% | Inhibition value, I (%) ([3]; C 3.41 μg/mL, age of the fungus 9 days): 12% | Inhibition value, I (%) ([3]; C 3.41 μg/mL, age of the fungus 12 days): 5% | Inhibition value, I (%) [3, 7]: 17% | Inhibition value, I (%) [3, 8]: 33% | Inhibition value, I (%) [3, 9]: 38% | Inhibition value, I (%) [3, 10]: 16% | Inhibition value, I (%) ([3]; C 6.81 μg/mL, age of the fungus 12 days): 7% | Inhibition value, I (%) ([3]; C 10.22 μg/mL, age of the fungus 3 days): 39% | Inhibition value, I (%) ([3]; C 10.22 μg/mL, age of the fungus 5 days): 40% | Inhibition value, I (%) ([3]; C 10.22 μg/mL, age of the fungus 7 days): 53% | Inhibition value, I (%) ([3]; C 10.22 μg/mL, age of the fungus 9 days): 28% | Inhibition value, I (%) ([3]; C 10.22 μg/mL, age of the fungus 12 days): 18% | Inhibition value, I (%) [3, 11]: 45% | Inhibition value, I (%) [3, 12]: 62% | Inhibition value, I (%) [3, 13]: 72% | Inhibition value, I (%) [3, 14]: 70% | Inhibition value, I (%) ([3]; C 13.62 μg/mL, age of the fungus 12 days): 66% | EC50 [3]: 3.1 µg/mL | MBC [4]: > 500 µM | MIC [4]: > 500 µM | MIC ([5]; Staphylococcus aureus): 8.9 ± 0.7 µM | MBC [5, 15]: 17.7 µM | MBC ([6]; Bacillus cereus): 284 µM | MIC ([6]; Bacillus cereus, read-out: MIC): 71 ± 6.2 µM

CCc1cccc2c1N(Cc1cc(C(C)(C)C)c(O)c(C(C)(C)C)c1)C(=O)/C2=N\NC(=O)C[N+](CC)(CC)CC [Compound 3c, 2-(2-(1-(3,5-Di-tert-butyl-4-hydroxybenzyl)-7-ethyl-2-oxoindolin-3-ylidene)hydrazinyl)-N,N,N-triethyl-2-oxoethanammonium bromide]
Inhibition value, I (%) [1, 16]: 2% | Inhibition value, I (%) [1, 17]: 11% | Inhibition value, I (%) [1, 18]: 30% | Inhibition value, I (%) [1, 19]: 17% | Inhibition value, I (%) [1, 20]: 24% | Inhibition value, I (%) [1, 21]: 26% | Inhibition value, I (%) [1, 22]: 33% | Inhibition value, I (%) [1, 23]: 23% | Inhibition value, I (%) ([1]; C 25.20 μg/mL, age of the fungus 3 days): 31% | Inhibition value, I (%) ([1]; C 25.20 μg/mL, age of the fungus 5 days): 33% | Inhibition value, I (%) ([1]; C 25.20 μg/mL, age of the fungus 7 days): 47% | Inhibition value, I (%) ([1]; C 25.20 μg/mL, age of the fungus 9 days): 27% | Inhibition value, I (%) ([1]; C 37.80 μg/mL, age of the fungus 3 days): 44% | Inhibition value, I (%) ([1]; C 37.80 μg/mL, age of the fungus 5 days): 42% | Inhibition value, I (%) ([1]; C 37.80 μg/mL, age of the fungus 7 days): 59% | Inhibition value, I (%) ([1]; C 37.80 μg/mL, age of the fungus 9 days): 38% | EC50 [1]: 10.5 µg/mL | MBC [2]: > 500 µM | MIC [2]: > 500 µM | Inhibition value, I (%) ([3]; C 1.26 μg/mL, age of the fungus 3 days): 17% | Inhibition value, I (%) ([3]; C 1.26 μg/mL, age of the fungus 5 days): 28% | Inhibition value, I (%) ([3]; C 1.26 μg/mL, age of the fungus 7 days): 30% | Inhibition value, I (%) ([3]; C 1.26 μg/mL, age of the fungus 9 days): 12% | Inhibition value, I (%) ([3]; C 1.26 μg/mL, age of the fungus 12 days): 3% | Inhibition value, I (%) ([3]; C 3.15 μg/mL, age of the fungus 3 days): 29% | Inhibition value, I (%) ([3]; C 3.15 μg/mL, age of the fungus 5 days): 31% | Inhibition value, I (%) ([3]; C 3.15 μg/mL, age of the fungus 7 days): 38% | Inhibition value, I (%) ([3]; C 3.15 μg/mL, age of the fungus 9 days): 20% | Inhibition value, I (%) ([3]; C 3.15 μg/mL, age of the fungus 12 days): 16% | Inhibition value, I (%) [3, 16]: 33% | Inhibition value, I (%) [3, 17]: 44% | Inhibition value, I (%) [3, 18]: 45% | Inhibition value, I (%) [3, 19]: 28% | Inhibition value, I (%) ([3]; C 6.30 μg/mL, age of the fungus 12 days): 20% | Inhibition value, I (%) ([3]; C 9.45 μg/mL, age of the fungus 3 days): 39% | Inhibition value, I (%) ([3]; C 9.45 μg/mL, age of the fungus 5 days): 45% | Inhibition value, I (%) ([3]; C 9.45 μg/mL, age of the fungus 7 days): 48% | Inhibition value, I (%) ([3]; C 9.45 μg/mL, age of the fungus 9 days): 41% | Inhibition value, I (%) ([3]; C 9.45 μg/mL, age of the fungus 12 days): 36% | Inhibition value, I (%) [3, 20]: 50% | Inhibition value, I (%) [3, 21]: 56% | Inhibition value, I (%) [3, 22]: 61% | Inhibition value, I (%) [3, 23]: 58% | Inhibition value, I (%) ([3]; C 12.60 μg/mL, age of the fungus 12 days): 48% | EC50 [3]: 2.1 µg/mL | MBC [4]: > 500 µM | MIC [4]: > 500 µM | MBC [5]: 6.2 ± 0.5 µM | MIC ([5]; Staphylococcus aureus): 3.1 ± 0.2 µM | MBC [5, 15]: 6.2 µM | MIC [6]: 24.8 ± 1.9 µM | MBC ([6]; Bacillus cereus): 99.3 µM | MIC ([6]; Bacillus cereus, read-out: MIC): ~25 µM
